Experimental data: PMC4520450, “Procyanidins Negatively Affect the Activity of the Phosphatases of Regenerating Liver” (PLoS ONE, 2015)

What was measured:
[1] = tested on: PRL-3 overexpressing HEK293 cells; test: Wound healing assay; format: cell-based; details: for cell migration, wound healing: 7 h, PRL-3 overexpressing cells
Procedure: (§1) To study if procyanidin C2 is able to inhibit PRL-1 and PRL-3 in cells, HEK293 cells were treated in a wound-healing assay (see the experimental procedures). […] As a control the empty vector cell line was again utilized. […] The migration speed was for all cell lines similar when treated with 50 μM of 9. To further corroborate these findings we performed additionally a transwell assay as an alternative way to study cell migration.
(§2) Fig 6 Wound healing abilities of PRL-1 or PRL-3 overexpressing or empty vector control HEK293 cell lines were analyzed in the presence of compound 9 or medium only. Cells were seeded at a concentration of 800,000 cells per insert and procyanidin C2 (9) was added at a concentration of 25 and 50 μM. A) Pictures of the wound gaps were taken at 0 h and 7 h for both conditions (with and without treatment). B) Quantification of the wound healing experiment. Speed of migration is shown for combined data from different replicates, as mean ± SD (n = 38–88). Two-sided t-tests with Welsh correction were performed for p < 0.05. ns = not significant;***: < 0.001; **: < 0.01; *: < 0.05. C) Effect of polyphenolic compounds in a transwell assay on the cell migration of HEK293 empty vector and PRL-3 overexpressing cell lines. Cells were seeded at a concentration of 100,000 cells per insert and procyanidin C2 (9) was added at a final concentration of 25 and 50 μM. Migration was allowed for 16 h before harvesting and staining with calcein AM for fluorescent readout. Mean ± SD (n = 60–72) is shown for combined data from different replicates. Two-sided t-tests with Welsh correction were performed for p < 0.05. ns = not significant. D) Quantification of wound healing experiment including blocking PRL-1 and PRL-3 with analog 3. Speed of migration is shown for combined data from different replicates, as mean ± SD (n = 63–82). Two-sided t-tests with Welsh correction were performed for p < 0.05.
(§3) Wound healing experiments were carried out with μ-dish 35mm culture inserts. 8 × 10^5 cells/mL of the respective HEK293 stable cell lines were seeded into each of the two insert wells and allowed to settle for 40 h in the presence of tetracycline. Then the inserts were gently removed and growth medium supplemented with 7.5% FBS and 0.1% tetracycline was added as well as procyanidin C2 (9) or procyanidin B3 (8) at a final concentration of 25, 50 or 75 μM. For the experiment including blocking of PRLs with analog 3, the latter one was added at a final concentration of 35 μM, followed by addition of procyanidin C2 (9) at either 25 or 50 μM final concentration. Negative controls contained growth medium with FBS only. Pictures of the wound gap were taken at 0 h and 7 h time points. A Zeiss Cellobserver HS microscope was used with 10 × magnitude. For data analysis, in each experiment, the distances between both cell fronts at time point 0 h and 7 h were measured by taking 20 different measuring points. Then all the measurements from different replicates (4) for each experiment were combined and analyzed by t-test using Welsh correction in GraphPad Prism. Data are shown with 99% confidence intervals.

[2] = tested on: PRL-1 overexpressing HEK293 cells; test: Wound healing assay; format: cell-based; details: for cell migration, wound healing: 7 h, PRL-1 overexpressing cells
Procedure: as §1, §2, §3

[3] = tested on: HEK293 empty vector control cell line; test: Wound healing assay; format: cell-based; details: 7 h, empty vector cells
Procedure: as §1, §2, §3

PRL-3 = molecular target: T1, PRL-3 (Homo sapiens, UniProt O75365); test: DiFMUP phosphatase activity assay for PRLs; format: biochemical; details: 50 nM PRL-3, 30 min preincubation, 25°C, 21 μM DiFMUP; mean ± SEM (n = 3–5); read-out: IC50 (Ki) PRL-3
T1 construct: His-TEV (cleaved yes); made in house
Procedure: Biochemical phosphatase activity measurements were carried out in the presence of different concentrations of various polyphenols, compounds 1–11 (Fig 1), using recombinant PRL-3 and 6,8-difluoro-4-methylumbelliferyl phosphate (DiFMUP) as a fluorogenic substrate (see the experimental procedures). We observed that the monomeric epicatechins EGC and EC inhibit PRL-3 only weakly, with a slightly better activity of EGC, which bears three hydroxyl groups at the B-ring. […] In general, as a basic structure activity-relationship the following trend was observed: a higher number of hydroxyl groups at the B-ring increased the activity slightly. […] The influence of the stereochemistry at C(2)–C(3) was studied by using GCG (the trans-epimer of EGCG).
Fig 2 Effect of polyphenolic compounds 8 (A), 9 (B), 10 (C) and 11 (D) on the phosphatase activity of PRL-1, PRL-2, PRL-3, PP1, and PP2A. Proteins were incubated for 30 min with 0–1000 μM of the corresponding procyandin 8–11. Phosphatase activity was measured in the presence of DiFMUP at 25°C using the concentration corresponding to the KM of each protein. The KM for PRLs was determined separately (PRL-3 = 21 μM, PRL-2 and PRL-1 = 24 μM). The KM for PP1 (91 μM) and for PP2A (100 μM) was taken from the literature. Protein concentrations are 50 nM for all PRLs and 2 mU for PP1 and 0.05 U for PP2A (see the Experimental Procedures). Phosphatase activity in the absence of inhibitors was set as 100%. Data represent means ± standard errors of the mean (n = 3–5).
DiFMUP assay for PRLs: In a final reaction volume of 100 μL the PRLs (50 nM final concentration) were incubated with decreasing concentrations of the inhibitory polyphenols for 30 minutes at 25°C. The buffer conditions were 108 mM TrisCl (pH 7.5), Triton 0.05% (v/v), DTT 27.0 mM, NaCl 811 mM. After the incubation time 20 μL DiFMUP (6,8-Difluoro-4-methylumbelliferyl phosphate) was added to reach a final concentration of 21 μM for PRL-3 and 24 μM for PRL-1 and PRL-2. On a Tecan safire2 (Tecan, Salzburg, Austria) plate reader dephosphorylation of the substrate to its fluorescent product was monitored by following the emission at 358 nm with excitation at 452 nm for 20 minutes. All measurements were done in triplicates, and the experiments were repeated at least three times. The slopes of the initial phases were obtained by linear regression of the data points. The normalized reaction rates were plotted versus the log of the inhibitor concentrations and the IC50 values were obtained by fitting the curves using the one site competition model of GraphPad Prism (GraphPad Software, Version 5). KM values were determined by measuring reaction kinetics of substrate dilution series. Initial velocities were plotted against DiFMUP concentration and the data was analyzed by Michaelis-Menten kinetics curve fitting of GraphPad Prism. A final DMSO content of 0.4% was maintained for the monomeric catechins. Due to the high water solubility of the procyanidins DMSO was not required and measurements were done in assay buffer only.

T1 sequence (O75365 whole entry): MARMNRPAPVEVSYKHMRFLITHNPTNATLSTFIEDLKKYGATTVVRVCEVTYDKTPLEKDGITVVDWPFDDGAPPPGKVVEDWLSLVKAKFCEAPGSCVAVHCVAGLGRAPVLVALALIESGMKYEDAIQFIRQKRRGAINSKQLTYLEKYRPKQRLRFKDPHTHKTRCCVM

SMILES | cell migration, wound healing ([1]; 50 μM) | cell migration, wound healing ([1]; 75 μM) | cell migration, wound healing ([2]; 50 μM) | cell migration, wound healing ([2]; 75 μM) | cell migration, wound healing ([3]; 50 μM) | cell migration, wound healing ([3]; 75 μM) | IC50 (PRL-3) | migration, wound healing, PRLs blocked with analog 3 ([1]; 25 μM of 9 plus 35 μM analog 3, PRL-3 overexpressing cells) | cell migration, wound healing ([1]; 25 μM) | migration speed, wound healing, PRLs blocked with analog 3 ([1]; 50 μM of 9 plus 35 μM analog 3, PRL-3 overexpressing cells) | migration, wound healing, PRLs blocked with analog 3 ([2]; 25 μM of 9 plus 35 μM analog 3, PRL-1 overexpressing cells) | cell migration, wound healing ([2]; 25 μM) | migration speed, wound healing, PRLs blocked with analog 3 ([2]; 50 μM of 9 plus 35 μM analog 3, PRL-1 overexpressing cells) | cell migration, wound healing ([3]; 25 μM)
Oc1cc(O)c2c(c1)O[C@H](c1ccc(O)c(O)c1)[C@@H](O)[C@@H]2c1c(O)cc(O)c2c1O[C@H](c1ccc(O)c(O)c1)[C@@H](O)C2 [Procyanidin B3 (8), Procyanidin B3] | did not significantly increase migration behavior | did not significantly increase the migration speed | significantly decreased the number of migrating cells | further decreased migration | did not significantly increase migration behavior | did not significantly increase the migration speed | 127 ± 1.5 µM |  |  |  |  |  |  | 
Oc1cc(O)c2c(c1)O[C@H](c1ccc(O)c(O)c1)[C@@H](O)[C@@H]2c1c(O)cc(O)c2c1O[C@H](c1ccc(O)c(O)c1)[C@@H](O)[C@@H]2c1c(O)cc(O)c2c1O[C@H](c1ccc(O)c(O)c1)[C@@H](O)C2 [Procyanidin C2 (9), Procyanidin C2] | significant decrease in cell migration |  | did not change any further compared to 25 μM |  | significantly increased the number of migrating cells |  | 18.8 ± 4.5 µM | the same as for the empty vector cell line | did not decrease significantly | exactly the same as for the empty vector cell line | not fully restored to the same level as the empty vector cell line | slight drop in cell migration | exactly the same as for the empty vector cell line | slightly increased migration behavior
